What was measured:
human topoisomerase II = molecular target: T1, human topoisomerase II (Homo sapiens, UniProt P11388); experiment: Decatenation assay (catenated to decatenated KDNA); format: biochemical; details: drug concentration that inhibits 50% of conversion of catenated to decatenated KDNA; read-out: topoisomerase II inhibition IC50
T1 construct: purchased TopoGEN, Inc
Description: Kinetoplast DNA (KDNA), human topoisomerase II (170 KDa form), and DNA Unwinding Kit including supercoiled pHOT1 DNA, relaxed DNA marker, buffers, and human topoisomerase I were purchased from TopoGEN, Inc. Agarose was purchased from Fisher. Quinobenzoxazine A-62176 (S-enantiomer) was provided by Abbott Laboratories or prepared by published procedure (Chu and Maleczka, Jr., 1987).
0.25 μg of KDNA was incubated with various concentrations of the quinobenzoxazines in a 20-μl reaction mixture containing 50 mM Tris-HCl (pH 8), 120 mM KCl, 10 mM MgCl2, and 0.5 mM each of ATP, dithiothreitol, and […] BSA for 10 min. Two units of human topoisomerase II (170 KDa form) were added to the mixture, which was then incubated at 37° C. for 30 min. The reaction was terminated with 0.1 volume of stop buffer (5% sarkosyl, 0.025% bromophenol blue, and 50% glycerol). The decatenation products were analyzed on 1% agarose gels run with 0.5 μg/ml ethidium bromide. The gels were scanned by FluoroImager and analyzed by ImageQuaNT software (Molecular Dynamics).

B16 melanoma = experiment: Cancer cell growth inhibition assay (MTT); format: cell-based, murine
Description: (§1) Exponentially growing cells in 0.1 ml medium were seeded on Day 0 in 96-well microtiter plates. On Day 1, 0.1-ml aliquots of medium containing graded concentrations test agent were added in duplicate to the cell plates. After incubation at 37° C. in a humidified incubator, the plates were centrifuged briefly (1-2 min at 1000 rpm), and 100 μl of the growth medium was removed. Cell cultures were incubated with 50 μl of 3-(4,5-dimethylthiazyl-2-yl)-2,5-diphenyltetrazolium bromide MTT, 1 mg/ml in Dubecco's PBS for 4 h at 37° C. The resulting purple formazan precipitate was solubilized with 200 μl of 0.4 N HCl in isopropyl alcohol. Absorbance was quantitated using a Bio-Rad Model 3550 microplate reader at a test wavelength of 570 nm and a reference wavelength of 630 nm. Absorbance values were transferred to a 486 personal computer, and the IC50 values were determined using the computer program EZ-ED50 (Chen et al., 1993).

DU-145 prostate = experiment: Cancer cell growth inhibition assay (MTT); format: cell-based, human
Description: as §1

H226 non-small-cell lung = experiment: Cancer cell growth inhibition assay (MTT); format: cell-based, human
Description: as §1

HT-29 colon = experiment: Cancer cell growth inhibition assay (MTT); format: cell-based, human
Description: as §1

MDA-231 breast = experiment: Cancer cell growth inhibition assay (MTT); format: cell-based, human
Description: as §1

Raji lymphoma = experiment: Cancer cell growth inhibition assay (MTT); format: cell-based, human
Description: as §1

human telomerase = experiment: Telomerase inhibition assay (HeLa cell extract); format: biochemical
Description: The assay used crude HeLa cell extract as the source of human telomerase. It measures the incorporation of ^32P-labeled dGTP into the primer extension of human telomere synthesis (Sun et al., 1998). […] Specific examples of such dual-acting compounds include compounds 2b and 2a (FIG. 3).
The assay was performed by using 5′-end biotinylated d[TTAGGG]3 as the telomere primer. Reaction mixtures (20 μl) containing 5 μl cell lysate (S-100), 50 mM Tris-OAc (pH 8.5), 50 mM K-OAc, 1 mM MgCl2, 5 mM BME, 1 mM spermidine, 1 μM telomere primer, 1.5 μM [α-^32P]-dGTP (800 Ci/mmol), 1 mM dATP, and 1 mM dTTP were incubated at 37° C. for 1 hr, and the reactions were terminated by adding 20 μl of […] streptavidin-coated Dynabeads suspension containing 10 mM Tris-HCl (pH 7.5), 1 mM EDTA, 2M KCl, and a 500 cpm biotinylated internal control. Streptavidin-coated Dynabeads bind selectively to the desired target (5′-biotinylated primer), forming a magnetic bead-targeted complex. The complex was separated from the suspension using a Dynal MPC magnet and washed several times with 2×SSC buffer containing 0.1% SDS to eliminate [α-^32P]-dGTP background. Telomerase reaction products were separated from the magnetic beads by protein denaturation with 5.7 M guanidine-HCl at 90° C. for 30 min. After ethanol precipitation, products were resolved on denaturating 10% polyacrylamide gel.

supercoiled pHOT1 DNA = experiment: DNA unwinding assay; format: biochemical; details: concentration shifting topoisomers to the middle position between relaxed and supercoiled bands
Description: A 22 μl mixture of 0.25 μg of supercoiled pHOT1 DNA, 5 units of topoisomerase I in topoisomerase I buffer (provided with the kit) was incubated at 37° C. for 30 min. Two μl of various concentrations of drug was added, and the incubation was continued for another 30 min. The reactions were terminated by addition of SDS to 1%. Proteinase K was added to the reaction mixtures to ca. 50 μg/ml, and the reaction mixtures were incubated for 15-20 min at 56° C. After adding 0.1 volume of 10×gel loading buffer, the reaction mixtures were extracted with an equal volume of CIA (Chloroform:isoamyl Alcohol; 24:1). The samples were loaded on an 1% agarous gel that was cast in TPE buffer (36 mM Tris-HCl, pH 7.8, 1 mM EDTA, 30 mM NaH2PO4) and 0.2 μg/ml Chloroquine. The gel was run in TPE buffer at room temperature at 10 volts for 20 h, destained in water for 15 min, stained in 0.05 μg/ml ethidium bromide for 15 min, and destained again in water for 15 min. The gel was then photographed, scanned by FluoroImager, and analyzed by ImageQuaNT software (Molecular Dynamics).

T1 sequence (P11388 whole entry): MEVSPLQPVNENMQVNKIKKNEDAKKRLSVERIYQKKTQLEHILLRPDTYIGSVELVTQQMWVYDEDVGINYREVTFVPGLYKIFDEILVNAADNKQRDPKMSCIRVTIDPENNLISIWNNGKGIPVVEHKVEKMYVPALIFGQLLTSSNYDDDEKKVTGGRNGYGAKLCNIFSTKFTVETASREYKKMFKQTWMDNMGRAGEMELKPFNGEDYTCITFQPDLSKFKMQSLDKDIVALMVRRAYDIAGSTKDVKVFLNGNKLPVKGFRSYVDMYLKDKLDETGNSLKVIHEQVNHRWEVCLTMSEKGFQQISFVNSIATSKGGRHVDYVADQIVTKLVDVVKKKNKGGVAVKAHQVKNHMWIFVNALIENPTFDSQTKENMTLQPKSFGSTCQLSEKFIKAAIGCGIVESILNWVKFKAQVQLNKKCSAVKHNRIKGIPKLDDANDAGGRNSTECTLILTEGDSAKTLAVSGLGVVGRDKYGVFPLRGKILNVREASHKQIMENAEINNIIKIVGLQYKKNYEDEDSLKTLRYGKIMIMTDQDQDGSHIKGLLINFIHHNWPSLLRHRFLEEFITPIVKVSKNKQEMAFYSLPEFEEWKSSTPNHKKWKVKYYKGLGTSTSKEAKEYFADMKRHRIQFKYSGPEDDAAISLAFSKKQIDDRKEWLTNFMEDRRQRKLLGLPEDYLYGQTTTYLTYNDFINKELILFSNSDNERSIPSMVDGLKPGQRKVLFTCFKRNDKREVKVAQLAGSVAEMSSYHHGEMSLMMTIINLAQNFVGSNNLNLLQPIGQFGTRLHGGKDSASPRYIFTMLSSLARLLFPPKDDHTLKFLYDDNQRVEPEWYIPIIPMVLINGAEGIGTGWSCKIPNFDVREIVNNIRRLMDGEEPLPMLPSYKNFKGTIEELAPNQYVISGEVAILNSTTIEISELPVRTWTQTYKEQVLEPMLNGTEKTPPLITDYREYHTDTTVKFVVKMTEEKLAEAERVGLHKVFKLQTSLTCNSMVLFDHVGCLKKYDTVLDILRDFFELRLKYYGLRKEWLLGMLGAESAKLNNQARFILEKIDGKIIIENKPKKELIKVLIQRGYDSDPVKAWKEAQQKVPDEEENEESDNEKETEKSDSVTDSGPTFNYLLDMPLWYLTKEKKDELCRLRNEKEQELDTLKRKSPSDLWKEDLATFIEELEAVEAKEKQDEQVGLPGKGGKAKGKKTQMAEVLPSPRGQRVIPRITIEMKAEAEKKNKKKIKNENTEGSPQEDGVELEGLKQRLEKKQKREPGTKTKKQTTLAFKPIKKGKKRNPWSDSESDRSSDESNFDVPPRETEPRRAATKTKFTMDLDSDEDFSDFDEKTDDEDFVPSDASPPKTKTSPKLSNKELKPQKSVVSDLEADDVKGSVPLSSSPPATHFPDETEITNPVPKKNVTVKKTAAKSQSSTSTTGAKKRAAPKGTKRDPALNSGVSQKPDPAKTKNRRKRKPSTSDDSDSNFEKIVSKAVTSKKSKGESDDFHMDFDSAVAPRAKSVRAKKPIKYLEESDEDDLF

SMILES	IC50 (human topoisomerase II) [µM]	IC50 (B16 melanoma) [µM]	IC50 (DU-145 prostate) [µM]	IC50 (H226 non-small-cell lung) [µM]	IC50 (HT-29 colon) [µM]	IC50 (MDA-231 breast) [µM]	IC50 (Raji lymphoma) [µM]	telomerase inhibition (qualitative) (human telomerase)	DNA unwinding concn (supercoiled pHOT1 DNA) [µM]
NC1CCN(c2c(F)cc3c(=O)c(C(=O)O)cn4c3c2Oc2ccc3ccccc3c2-4)C1 (racemic) [Compound 1a, 1-(3-Aminopyrrolidin-1-yl)-2-fluoro-4-oxo-4H-pyrido[3,2,1-k,l]-benzo[h]-phenoxazine-5-carboxylic Acid]	0.77	0.44 ± 0.06	0.2 ± 0.03	0.14 ± 0.01	0.18 ± 0.01	0.15 ± 0.04	0.086 ± 0.006	–	–
Cl.NC1CCN(c2c(F)cc3c(=O)c(C(=O)O)cn4c3c2Oc2c-4ccc3ccccc23)C1 (racemic) [Compound 2a, 1-(3-Aminopyrrolidin-1-yl)-2-fluoro-4-oxo-4H-pyrido[3,2,1-k,l]-benzo[f]-phenoxazine-5-carboxylic Acid]	0.55	0.04 ± 0.004	0.017 ± 0.007	0.022 ± 0.002	0.03 ± 0.003	0.027 ± 0.002	0.018 ± 0.001	dual-acting	–
NC1CCN(c2c(F)cc3c(=O)c(C(=O)O)cn4c3c2Oc2cc3ccccc3cc2-4)C1 (racemic) [Compound 3a, 1-(3-Aminopyrrolidin-1-yl)-2-fluoro-4-oxo-4H-pyrido[3,2,1-k,l]-benzo[g]-phenoxazine-5-carboxylic Acid]	0.77	0.1 ± 0.01	0.025 ± 0.009	0.004 ± 0.002	0.028 ± 0.005	0.023 ± 0.004	0.038 ± 0.006	–	–
Cl.NC1CCN(c2c(F)cc3c(=O)c(C(=O)O)cn4c3c2Oc2ccc3ccccc3c2-4)C1 (centres unmarked) [Compound 1b, 1-(3-Aminopyrrolidin-1-yl)-2-fluoro-4-oxo-4H-pyrido[3,2,1-k,l]-benzo[h]-phenoxazine-5-carboxylic Acid]	1.22	0.68 ± 0.05	0.36 ± 0.12	2.4 ± 0.1	0.36 ± 0.04	0.35 ± 0.06	0.16 ± 0.07	–	35
Cl.NC1CCN(c2c(F)cc3c(=O)c(C(=O)O)cn4c3c2Oc2ccc3ccccc3c2-4)C1 (centres unmarked) [Compound 1c, 1-(3-Aminopyrrolidin-1-yl)-2-fluoro-4-oxo-4H-pyrido[3,2,1-k,l]-benzo[h]-phenoxazine-5-carboxylic Acid]	0.72	0.13 ± 0.02	0.14 ± 0.01	0.13 ± 0.01	0.27 ± 0.04	0.19 ± 0.04	0.082 ± 0.008	–	19
Cl.NC1CCN(c2c(F)cc3c(=O)c(C(=O)O)cn4c3c2Oc2c-4ccc3ccccc23)C1 (centres unmarked) [Compound 2c, 1-(3-Aminopyrrolidin-1-yl)-2-fluoro-4-oxo-4H-pyrido[3,2,1-k,l]-benzo[f]-phenoxazine-5-carboxylic Acid]	0.49	0.18 ± 0.02	0.064 ± 0.007	0.027 ± 0.004	0.051 ± 0.006	0.084 ± 0.007	0.02 ± 0.004	–	10
Cl.NC1CCN(c2c(F)cc3c(=O)c(C(=O)O)cn4c3c2Oc2cc3ccccc3cc2-4)C1 (centres unmarked) [Compound 3b, 1-(3-Aminopyrrolidin-1-yl)-2-fluoro-4-oxo-4H-pyrido[3,2,1-k,l]-benzo[g]-phenoxazine-5-carboxylic Acid]	0.42	0.14 ± 0.015	0.048 ± 0.008	0.022 ± 0.015	0.022 ± 0.003	0.021 ± 0.002	0.032 ± 0.005	–	15
Cl.NC1CCN(c2c(F)cc3c(=O)c(C(=O)O)cn4c3c2Oc2cc3ccccc3cc2-4)C1 (centres unmarked) [Compound 3c, 1-(3-Aminopyrrolidin-1-yl)-2-fluoro-4-oxo-4H-pyrido[3,2,1-k,l]-benzo[g]-phenoxazine-5-carboxylic Acid]	0.44	0.02 ± 0.006	0.03 ± 0.006	0.014 ± 0.002	0.023 ± 0.003	0.01 ± 0.002	0.029 ± 0.005	–	13
O=C(O)c1cn2c3c(c(N4CCNCC4)c(F)cc3c1=O)Oc1ccc3ccccc3c1-2 [Compound 4, 1-(Piperazin-1-yl)-2-fluoro-4-oxo-4H-pyrido[3,2,1-k,l]-benzo[h]phenoxazine-5-carboxylic Acid]	9.6	2.1 ± 0.3	0.84 ± 0.27	2.1 ± 0.2	2 ± 0.2	2.2 ± 0.3	0.8 ± 0.05	–	>100
O=C(O)c1cn2c3c(c(N4CCNCC4)c(F)cc3c1=O)Oc1c-2ccc2ccccc12 [Compound 5, 1-(Piperazin-1-yl)-2-fluoro-4-oxo-4H-pyrido[3,2,1-k,l]-benzo[f]phenoxazine-5-carboxylic Acid]	1.84	0.65 ± 0.06	0.14 ± 0.04	0.2 ± 0.03	0.36 ± 0.09	0.38 ± 0.05	0.21 ± 0.04	–	>100
O=C(O)c1cn2c3c(c(N4CCNCC4)c(F)cc3c1=O)Oc1cc3ccccc3cc1-2 [Compound 6, 1-(Piperazin-1-yl)-2-fluoro-4-oxo-4H-pyrido[3,2,1-k,l]-benzo[g]phenoxazine-5-carboxylic Acid]	0.64	0.045 ± 0.048	0.075 ± 0.032	> 100	6.8 ± 1.8	> 1000	0.0072 ± 0.0076	–	>100
